Legend:
Test in all cases: combination Emax (second highest fraction inhibited in the dose matrix, 72 h); higher = more inhibition; extreme values may be limits of the assay
[1] = test system: HO-1-N-1 (Oral Cavity Carcinoma)
Outline: (§1)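 After 24 hours at 37°C and 5% CO2 in 1536-well plates, cells in DMEM/F12 or RPMI plus 10% FBS received two-drug dose matrices for 72 hours. Viability came from CellTiter-Glo 2.0 luminescence and was scaled as inhibition, anchored at 0 by vehicle wells and at 1 by blank wells. Combination Emax is taken as the second-highest inhibition in the matrix, and Bliss excess as the observed combination effect less EA + EB − EA·EB, with EA and EB the single-agent effects.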

[2] = test system: OVCA420 (Ovarian Carcinoma)
Outline: as §1

AGS (Gastric Carcinoma) = test system: AGS (Gastric Carcinoma)
Outline: as §1

[3] = test system: MDA-MB-361 (Breast Carcinoma)
Outline: as §1

[4] = test system: DEL (T-Cell Non-Hodgkin's Lymphoma)
Outline: as §1

[5] = test system: SNU-5 (Gastric Carcinoma)
Outline: as §1

NB10 (Neuroblastoma) = test system: NB10 (Neuroblastoma)
Outline: as §1

HOS (Osteosarcoma) = test system: HOS (Osteosarcoma)
Outline: as §1

T98G (Glioblastoma) = test system: T98G (Glioblastoma)
Outline: as §1

[6] = test system: Ramos-2G6-4C10 (Burkitt's Lymphoma)
Outline: as §1

[7] = test system: KURAMOCHI (Ovarian Carcinoma)
Outline: as §1

[8] = test system: MFE-296 (Endometrial Carcinoma)
Outline: as §1

[9] = test system: RO82-W-1 (Thyroid Gland Carcinoma)
Outline: as §1

[10] = test system: KYSE-520 (Esophageal Squamous Cell Carcinoma)
Outline: as §1

[11] = test system: TCCSUP (Bladder Carcinoma)
Outline: as §1

[12] = test system: LU-135 (Small Cell Lung Carcinoma)
Outline: as §1

42-MG-BA (Glioblastoma) = test system: 42-MG-BA (Glioblastoma)
Outline: as §1

NOS-1 (Osteosarcoma) = test system: NOS-1 (Osteosarcoma)
Outline: as §1

[13] = test system: TE-9 (Esophageal Squamous Cell Carcinoma)
Outline: as §1

[14] = test system: TE-15 (Esophageal Squamous Cell Carcinoma)
Outline: as §1

Row | Structure (SMILES) | combination Emax [1] | combination Emax [2] | combination Emax (AGS (Gastric Carcinoma)) | combination Emax [3] | combination Emax [4] | combination Emax [5] | combination Emax (NB10 (Neuroblastoma)) | combination Emax (HOS (Osteosarcoma)) | combination Emax (T98G (Glioblastoma)) | combination Emax [6] | combination Emax [7] | combination Emax [8] | combination Emax [9] | combination Emax [10] | combination Emax [11] | combination Emax [12] | combination Emax (42-MG-BA (Glioblastoma)) | combination Emax (NOS-1 (Osteosarcoma)) | combination Emax [13] | combination Emax [14]
1 | C=CCn1c(=O)c2cnc(Nc3ccc(N4CCN(C)CC4)cc3)nc2n1-c1cccc(C(C)(C)O)n1 [AZD1775] + O=C(c1cc(Cc2n[nH]c(=O)c3ccccc23)ccc1F)N1CCN(C(=O)C2CC2)CC1 [Olaparib] (first compound max 1 µM, partner max 10 µM) | 0.437 | 0.881 | 0.547 | 0.861 | 0.999 | 0.433 | 0.682 | 0.417 | 0.675 | 1 | 0.699 | 0.279 | 0.405 | 0.399 | 0.461 | 0.642 | 0.278 | 0.376 | 0.307 | 0.382
2 | CCN(CCO)CCCOc1ccc2c(Nc3cc(CC(=O)Nc4cccc(F)c4)[nH]n3)ncnc2c1 [AZD2811] + C=CCn1c(=O)c2cnc(Nc3ccc(N4CCN(C)CC4)cc3)nc2n1-c1cccc(C(C)(C)O)n1 [AZD1775] (first compound max 1 µM, partner max 1 µM) | 0.848 | 0.179 | 0.6 | 0.801 | 1 | 0.581 | 0.466 | 0.298 | 0.608 | 0.957 | 0.646 | 0.152 | 0.356 | 0.306 | 0.352 | 0.921 | 0.522 | 0.244 | 0.207 | 0.496
3 | CCN(CCO)CCCOc1ccc2c(Nc3cc(CC(=O)Nc4cccc(F)c4)[nH]n3)ncnc2c1 [AZD2811] + C[C@@H]1COCCN1C2=NC(=NC(=C2)C3(CC3)[S@](=N)(=O)C)C4=C5C=CNC5=NC=C4 [AZD6738] (first compound max 1 µM, 7x7, partner max 10 µM) | 0.858 | 0.443 | 0.605 | 0.815 | 0.99 | 0.907 | 0.771 | 0.652 | 0.799 | 0.911 | 0.569 | 0.405 | 0.405 | 0.558 | 0.604 | 0.929 | 0.568 | 0.288 | 0.278 | 0.731
4 | CCN(CCO)CCCOc1ccc2c(Nc3cc(CC(=O)Nc4cccc(F)c4)[nH]n3)ncnc2c1 [AZD2811] + O=C(c1cc(Cc2n[nH]c(=O)c3ccccc23)ccc1F)N1CCN(C(=O)C2CC2)CC1 [Olaparib] (first compound max 1 µM, 7x7, partner max 10 µM) | 0.824 | 0.137 | 0.302 | 0.27 | 0.823 | 0.108 | 0.386 | 0.0874 | 0.453 | 0.295 | 0.237 | 0.211 | 0.195 | 0.21 | 0.268 | 0.88 | 0.464 | 0.22 | 0.155 | 0.25
5 | CN(CCO)CC[C@H](CSc1ccccc1)Nc1ccc(S(=O)(=O)NC(=O)c2ccc(N3CCC([C@@H](O)c4ccccc4-c4ccc(Cl)cc4)CC3)cc2)cc1S(=O)(=O)C(F)(F)F [AZD4320] + C1CN(CCC1(C(=O)N[C@@H](CCO)C2=CC=C(C=C2)Cl)N)C3=NC=NC4=C3C=CN4 [Capivasertib] (first compound max 1 µM, 7x7, partner max 3 µM) | 0.216 | 0.0769 | 0.692 | 0.341 | 0.192 | 0.447 | 0.108 | 0.229 | 0.249 | 0.586 | 0.351 | 0.388 | 0.311 | 0.329 | 0.168 | 1 | 0.594 | 0.475 | 0.356 | 0.141
6 | CN(CCO)CC[C@H](CSc1ccccc1)Nc1ccc(S(=O)(=O)NC(=O)c2ccc(N3CCC([C@@H](O)c4ccccc4-c4ccc(Cl)cc4)CC3)cc2)cc1S(=O)(=O)C(F)(F)F [AZD4320] + C=CCn1c(=O)c2cnc(Nc3ccc(N4CCN(C)CC4)cc3)nc2n1-c1cccc(C(C)(C)O)n1 [AZD1775] (first compound max 1 µM, partner max 1 µM) | 0.549 | 0.37 | 0.999 | 0.918 | 1 | 0.658 | 0.493 | 0.379 | 0.892 | 1 | 0.807 | 0.273 | 0.618 | 0.552 | 0.689 | 1 | 0.293 | 0.992 | 0.34 | 0.615
